Series [1] concerns Plasmodium falciparum. The experiment in a line: Antimalarial activity against chloroquine resistant Plasmodium falciparum W2 infected in human erythrocytes assessed as inhibition of parasite growth incubated for 48 hrs by YOYO-1 dye based flow cytometric analysis. It is filed as functional, organism-based. The conditions noted are these: W2, 48 h. (A flow cytometer gives signals particle by particle.)

Series [2] deals with Plasmodium falciparum. Description: Antimalarial activity against chloroquine sensitive Plasmodium falciparum 3D7 infected in human erythrocytes assessed as inhibition of parasite growth incubated for 48 hrs by YOYO-1 dye based flow cytometric analysis. It is filed as functional, organism-based. As to conditions: 3D7, 48 h.
In series [3] the test system is Plasmodium falciparum. The experiment in a line: Resistance index, ratio of IC50 for antimalarial activity against chloroquine resistant Plasmodium falciparum W2 infected in human erythrocytes to IC50 for antimalarial activity against chloroquine sensitive Plasmodium falciparum 3D7 infected in human erythrocytes. It is filed as functional.
For a further series, the system named is MDA-MB-231. The experiment in a line: Cytotoxicity against human MDA-MB-231 cells incubated for 24 hrs by MTT assay. It is filed as functional, cell-based. As to conditions: MDA-MB-231, 24 h.
Another series deals with A549. Description: Cytotoxicity against human A549 cells incubated for 24 hrs by MTT assay. It is filed as functional, cell-based. The conditions noted are these: A549, 24 h.
The nature of series [4]: Cytotoxicity against human HPL1D cells incubated for 24 hrs by MTT assay. It is filed as toxicity, cell-based. Background: Tetrazolium dyes change colour on reduction, which living cells bring about.
Series [5] is described as follows: Selectivity index, ratio of IC50 for cytotoxicity against human HPL1D cells to IC50 for antimalarial activity against chloroquine resistant Plasmodium falciparum W2 infected in human erythrocytes. As to conditions: read-out: Ratio IC50. It is filed as toxicity, cell-based.
The nature of series [6]: Selectivity index, ratio of IC50 for cytotoxicity against human A549 cells to IC50 for antimalarial activity against chloroquine resistant Plasmodium falciparum W2 infected in human erythrocytes. It is filed as functional.
Series [7] in a line: Selectivity index, ratio of IC50 for cytotoxicity against human MDA-MB-231 cells to IC50 for antimalarial activity against chloroquine resistant Plasmodium falciparum W2 infected in human erythrocytes. It is filed as functional.
The subject of series [8] is Erythrocyte. Description: Cytotoxicity against human erythrocyte at 3 to 100 uM incubated for 3 hrs by microplate reader assay. It is filed as toxicity, cell-based. The conditions noted are these: dose 3-100 µM.
The subject of series [9] is Erythrocyte. The experiment in a line: Hemolytic activity in human erythrocyte assessed as hemolysis at 25 uM incubated for 3 hrs by microplate reader assay. It is filed as toxicity, cell-based.

This is an account of results in ChEMBL document CHEMBL5321198, “Identification, in-vitro anti-plasmodial assessment and docking studies of series of tetrahydrobenzothieno[2,3-d]pyrimidine-acetamide molecular hybrids as potential antimalarial agents” (Eur J Med Chem, 2023).

Structures are written as SMILES. Bounds are passed on as bounds.

Take `COc1ccc(NC(=O)C(c2ccc(F)c(Cl)c2)N2CCN(c3ncnc4sc5c(c34)CCCC5)CC2)cc1` (centres undefined): the IC50 with Plasmodium falciparum [1] was determined as 0.125 µM; in the series with Plasmodium falciparum [2], 1.08 µM; in the series with MDA-MB-231, 0.52 µM; in the series with A549, 0.43 µM. Besides, the figures for the “Ratio IC50” value (in the series with Plasmodium falciparum [3]; in series [6]; in [7]) were 0.116, 3.43 and 4.15, respectively. In [4], this compound returned an IC50 at 24 h of 36.1 µM. Besides, the selectivity ratio in [5] came out at 288. Further, the Activity result was “Non-Toxic” in the series on Erythrocyte [8] and “Toxic” in the series with Erythrocyte [9].
As to `O=C(O)C(c1ccc(OC(F)(F)F)cc1)N1CCN(c2ncnc3sc4c(c23)CCCC4)CC1` (centres undefined), the IC50 in the series with Plasmodium falciparum [1] is above 10 µM.
As to `COc1ccc(NC(=O)C(c2ccc(C(F)(F)F)cc2)N2CCN(c3ncnc4sc5c(c34)CCCC5)CC2)cc1` (centres undefined), the IC50 came out at 0.056 µM in the series on Plasmodium falciparum [1], 0.837 µM in the series on Plasmodium falciparum [2], 0.11 µM in the series on MDA-MB-231 and 0.08 µM with A549. Also, the “Ratio IC50” value in the series on Plasmodium falciparum [3] was 0.067; in series [6] it was 1.43; in series [7], 1.97. The compound also showed an IC50 at 24 h in series [4] of 39.9 µM. Also, the selectivity ratio in series [5] stood at 716. The values for the Activity result in the series on Erythrocyte [8] and in the series with Erythrocyte [9] were “Non-Toxic” and “Toxic”, respectively.
As to `O=C(O)C(c1ccc(Cl)c(Cl)c1)N1CCN(c2ncnc3sc4c(c23)CCCC4)CC1` (centres undefined), the IC50 in the series with Plasmodium falciparum [1] was above 10 µM.
Turning to `COc1ccc(NC(=O)C(c2ccc(OC(F)(F)F)cc2)N2CCN(c3ncnc4sc5c(c34)CCCC5)CC2)cc1` (centres undefined), the IC50 turned out to be 0.061 µM with Plasmodium falciparum [1], 0.888 µM with Plasmodium falciparum [2], 0.46 µM in the series on MDA-MB-231 and 0.37 µM in the series with A549. The “Ratio IC50” value is on record as 0.068 with Plasmodium falciparum [3], 6.08 in series [6] and 7.56 in [7]. The compound further came in with an IC50 at 24 h in series [4] of 28.7 µM. Besides, in series [5], the selectivity ratio turned out to be 472. In addition, the results for the Activity entry with Erythrocyte [8] and in the series on Erythrocyte [9] were “Non-Toxic” and “Toxic”, respectively.
For `COc1ccc(NC(=O)C(c2ccc(Cl)c(Cl)c2)N2CCN(c3ncnc4sc5c(c34)CCCC5)CC2)cc1` (centres undefined), the IC50 in the series with Plasmodium falciparum [1] amounted to 0.068 µM; in the series with Plasmodium falciparum [2], 0.933 µM; in the series with MDA-MB-231, 0.74 µM; with A549 it was 0.81 µM. Also, the figures for the “Ratio IC50” value (with Plasmodium falciparum [3]; in series [6]; in series [7]) were 0.073, 11.91 and 10.88, respectively. Besides, the concentration for half-maximal inhibition (IC50) at 24 h in [4] turned out to be 31.3 µM. Further, in series [5], the selectivity ratio came to 460. The results for the Activity entry in the series with Erythrocyte [8] and in the series on Erythrocyte [9] were “Non-Toxic” and “Toxic”, respectively.
As for `Cc1ccc(C(C(=O)O)N2CCN(c3ncnc4sc5c(c34)CCCC5)CC2)cc1` (centres undefined), the IC50 in the series with Plasmodium falciparum [1] turned out to be 8.52 µM.
`COc1ccc(NC(=O)C(c2ccc(C)cc2)N2CCN(c3ncnc4sc5c(c34)CCCC5)CC2)cc1` (centres undefined): the concentration for half-maximal inhibition (IC50) was 0.268 µM with Plasmodium falciparum [1] and 0.692 µM in the series with Plasmodium falciparum [2]. In the series with Plasmodium falciparum [3], the “Ratio IC50” value was 0.387. Besides, the Activity entry is recorded as “Non-Toxic” with Erythrocyte [8] and “Toxic” with Erythrocyte [9].
As for `O=C(O)C(c1ccc(F)c(F)c1)N1CCN(c2ncnc3sc4c(c23)CCCC4)CC1` (centres undefined), the half-inhibitory concentration (IC50) with Plasmodium falciparum [1] was above 10 µM.
For the compound `COc1ccc(NC(=O)C(c2ccc(F)cc2)N2CCN(c3ncnc4sc5c(c34)CCCC5)CC2)cc1` (centres undefined), the results for the concentration for half-maximal inhibition (IC50) in the series with Plasmodium falciparum [1] and in the series with Plasmodium falciparum [2] were 0.171 µM and 1.22 µM, respectively. Also, the “Ratio IC50” value in the series with Plasmodium falciparum [3] turned out to be 0.173. Further, the Activity result is reported as “Non-Toxic” with Erythrocyte [8] and “Toxic” with Erythrocyte [9].
Take `COc1cccc2c1C(=O)c1c(O)c3c(c(O)c1C2=O)C[C@@](O)(C(=O)CO)C[C@@H]3O[C@H]1C[C@H](N)[C@H](O)[C@H](C)O1` [DOXORUBICIN]: the IC50 in the series with MDA-MB-231 was 5.8 µM.
For `O=C(O)C(c1ccc(F)cc1)N1CCN(c2ncnc3sc4c(c23)CCCC4)CC1` (centres undefined), the half-inhibitory concentration (IC50) with Plasmodium falciparum [1] was above 10 µM.
Still for that read-out and setting: the value for `O=C(O)C(c1ccc(F)c(Cl)c1)N1CCN(c2ncnc3sc4c(c23)CCCC4)CC1` (centres undefined) was above 10 µM.
Take `COc1ccc(NC(=O)C(c2ccc(F)c(F)c2)N2CCN(c3ncnc4sc5c(c34)CCCC5)CC2)cc1` (centres undefined): the IC50 with Plasmodium falciparum [1] came out at 0.133 µM; in the series with Plasmodium falciparum [2], 0.728 µM; in the series with MDA-MB-231, 0.31 µM; in the series on A549, 0.75 µM. In addition, the “Ratio IC50” value amounted to 0.183 in the series on Plasmodium falciparum [3], 5.64 in [6] and 2.33 in [7]. In addition, the half-maximal inhibitory concentration (IC50) at 24 h in series [4] amounted to 27.2 µM. The selectivity ratio in series [5] was 205. Further, the Activity result is “Non-Toxic” in the series with Erythrocyte [8] and “Toxic” in the series with Erythrocyte [9].
As to `O=C(O)C(c1ccc(C(F)(F)F)cc1)N1CCN(c2ncnc3sc4c(c23)CCCC4)CC1` (centres undefined), the 50% inhibitory concentration (IC50) in the series with Plasmodium falciparum [1] was found to be 6.63 µM.
Regarding `COc1ccc(NC(=O)C(c2ccc(OC)cc2)N2CCN(c3ncnc4sc5c(c34)CCCC5)CC2)cc1` (centres undefined), the IC50 in the series on Plasmodium falciparum [1] turned out to be 0.187 µM; in the series on Plasmodium falciparum [2], 0.698 µM. Moreover, the “Ratio IC50” value in the series with Plasmodium falciparum [3] is recorded as 0.268. For the same compound, the Activity result is “Non-Toxic” in the series on Erythrocyte [8] and “Toxic” with Erythrocyte [9].
For `COc1ccc(C(C(=O)O)N2CCN(c3ncnc4sc5c(c34)CCCC5)CC2)cc1` (centres undefined), the 50% inhibitory concentration (IC50) with Plasmodium falciparum [1] was above 10 µM.

The IC50 is the midpoint of a concentration-inhibition curve.
